Data from ChEMBL document CHEMBL4316586, “A comprehensive review of salinomycin derivatives as potent anticancer and anti-CSCs agents” (Eur J Med Chem, 2019).

Columns and labels:
JIMT-1 [1] = assay: Antiproliferative activity against human JIMT1 cells by MTT assay; type: functional, cell-based
MCF7 [2] = assay: Antiproliferative activity against human MCF7 cells by MTT assay; type: functional, cell-based
U-87 MG = assay: Antiproliferative activity against human U87 cells by MTT assay; type: functional, cell-based, U-87MG ATCC
HeLa = assay: Antiproliferative activity against human HeLa cells by MTT assay; type: functional, cell-based
Caco-2 = assay: Antiproliferative activity against human Caco2 cells by MTT assay; type: functional, cell-based
HT-29 [3] = assay: Antiproliferative activity against human HT-29 cells by MTT assay; type: functional, cell-based
HGC-27 [4] = assay: Antiproliferative activity against human HGC27 cells by MTT assay; type: functional, cell-based
MDA-MB-231 [5] = assay: Antiproliferative activity against human MDA-MB-231 cells by MTT assay; type: functional, cell-based
HT-29 [6] = assay: Antiproliferative activity against human HT-29 cells after 48 hrs by MTT assay; type: functional, cell-based; details: HT-29, 48 h
HGC-27 [7] = assay: Antiproliferative activity against human HGC27 cells after 48 hrs by MTT assay; type: functional, cell-based; details: HGC-27, 48 h
MDA-MB-231 [8] = assay: Antiproliferative activity against human MDA-MB-231 cells after 48 hrs by MTT assay; type: functional, cell-based; details: MDA-MB-231, 48 h
JIMT-1 [9] = assay: Antiproliferative activity against human JIMT1 cells; type: functional, cell-based
MCF7 [10] = assay: Antiproliferative activity against human MCF7 cells; type: functional, cell-based

Row | Compound | IC50 (MCF7 [2]) | IC50 (HT-29 [3]) | IC50 (MDA-MB-231 [5]) | IC50 (JIMT-1 [1]) | IC50 (HGC-27 [4]) | also measured
1 | CC[C@@H](C(=O)[C@@H](C)[C@@H](O)[C@H](C)[C@@H]1O[C@@H]([C@@H](CC)C(=O)O)CC[C@@H]1C)[C@H]1O[C@]2(C=C[C@H](n3cc(-c4ccc(-c5ccccc5)cc4)nn3)[C@]3(CC[C@@](C)([C@H]4CC[C@](O)(CC)[C@H](C)O4)O3)O2)[C@H](C)C[C@@H]1C | – | – | – | – | – | IC50 (U-87 MG): 50000 nM; IC50 (HeLa): 330 nM; IC50 (Caco-2): 1290 nM
2 | CC[C@@H](C(=O)[C@@H](C)[C@@H](O)[C@H](C)[C@@H]1O[C@@H]([C@@H](CC)C(=O)O)CC[C@@H]1C)[C@H]1O[C@]2(C=C[C@H](n3cc(COC(C(F)(F)F)(C(F)(F)F)C(F)(F)F)nn3)[C@]3(CC[C@@](C)([C@H]4CC[C@](O)(CC)[C@H](C)O4)O3)O2)[C@H](C)C[C@@H]1C | – | – | – | – | – | IC50 (U-87 MG): 16600 nM; IC50 (HeLa): 290 nM; IC50 (Caco-2): 440 nM
3 | CC[C@@H](C(=O)[C@@H](C)[C@@H](O)[C@H](C)[C@@H]1O[C@@H]([C@@H](CC)C(=O)O)CC[C@@H]1C)[C@H]1O[C@@]2(C=C[C@@H](O)[C@@]3(CC[C@@](C)([C@H]4CC[C@](O)(CC)[C@H](C)O4)O3)O2)[C@H](C)C[C@@H]1C | – | – | – | – | – | IC50 (HT-29 [6]): 750 nM; IC50 (HGC-27 [7]): 620 nM; IC50 (MDA-MB-231 [8]): 5700 nM
4 | CC[C@@H](C(=O)[C@@H](C)[C@@H](O)[C@H](C)[C@@H]1O[C@@H]([C@@H](CC)C(=O)O)CC[C@@H]1C)[C@H]1O[C@]2(C=C[C@H](OC(C)=O)[C@]3(CC[C@@](C)([C@H]4CC[C@](O)(CC)[C@H](C)O4)O3)O2)[C@H](C)C[C@@H]1C | – | 800 nM | 1960 nM | – | 940 nM | –
5 | CC[C@@H](C(=O)[C@@H](C)[C@@H](O)[C@H](C)[C@@H]1O[C@@H]([C@@H](CC)C(=O)O)CC[C@@H]1C)[C@H]1O[C@]2(C=C[C@H](OC(=O)c3ccccc3)[C@]3(CC[C@@](C)([C@H]4CC[C@](O)(CC)[C@H](C)O4)O3)O2)[C@H](C)C[C@@H]1C | – | 180 nM | 790 nM | – | 240 nM | –
6 | CC[C@@H]([C@@H](O)[C@@H](C)[C@@H](O)[C@H](C)[C@@H]1O[C@@H]([C@@H](CC)C(=O)O)CC[C@@H]1C)[C@H]1O[C@]2(C=C[C@@H](O)[C@]3(CC[C@@](C)([C@H]4CC[C@](O)(CC)[C@H](C)O4)O3)O2)[C@H](C)C[C@@H]1C | – | – | – | – | – | IC50 (JIMT-1 [9]): 12500 nM; IC50 (MCF7 [10]): 13700 nM
7 | CC[C@@H](C(=O)[C@@H](C)[C@@H](O)[C@H](C)[C@@H]1O[C@@H]([C@@H](CC)C(=O)O)CC[C@@H]1C)[C@H]1O[C@@]2(C=C[C@@H](OCc3ccccc3)[C@]3(CC[C@@](C)([C@H]4CC[C@](O)(CC)[C@H](C)O4)O3)O2)[C@H](C)C[C@@H]1C | – | – | – | – | – | IC50 (HT-29 [6]): > 10000 nM; IC50 (HGC-27 [7]): > 10000 nM; IC50 (MDA-MB-231 [8]): > 10000 nM

Further lines, with some results ahead:

Row | IC50 (MCF7 [2]) | IC50 (HT-29 [3]) | IC50 (MDA-MB-231 [5]) | Compound | IC50 (JIMT-1 [1]) | IC50 (HGC-27 [4]) | also measured
8 | 420 nM | – | – | CC[C@@H](C(=O)[C@@H](C)[C@@H](O)[C@H](C)[C@@H]1O[C@@H]([C@@H](CC)C(=O)O)CC[C@@H]1C)[C@H]1O[C@]2(C=C[C@@H](OC(=O)NC(C)(C)C)[C@]3(CC[C@@](C)([C@H]4CC[C@](O)(CC)[C@H](C)O4)O3)O2)[C@H](C)C[C@@H]1C | 380 nM | – | –
9 | – | 840 nM | 1890 nM | CCC(=O)O[C@H]1C=C[C@]2(O[C@H]([C@@H](CC)C(=O)[C@@H](C)[C@@H](O)[C@H](C)[C@@H]3O[C@@H]([C@@H](CC)C(=O)O)CC[C@@H]3C)[C@@H](C)C[C@H]2C)O[C@@]12CC[C@@](C)([C@H]1CC[C@](O)(CC)[C@H](C)O1)O2 | – | 890 nM | –
10 | – | 890 nM | 2780 nM | CC[C@@H](C(=O)[C@@H](C)[C@@H](O)[C@H](C)[C@@H]1O[C@@H]([C@@H](CC)C(=O)O)CC[C@@H]1C)[C@H]1O[C@]2(C=C[C@H](OC(=O)CC(C)C)[C@]3(CC[C@@](C)([C@H]4CC[C@](O)(CC)[C@H](C)O4)O3)O2)[C@H](C)C[C@@H]1C | – | 860 nM | –
11 | 610 nM | – | – | C=CC(=O)O[C@@H]1C=C[C@]2(O[C@H]([C@@H](CC)C(=O)[C@@H](C)[C@@H](O)[C@H](C)[C@@H]3O[C@@H]([C@@H](CC)C(=O)O)CC[C@@H]3C)[C@@H](C)C[C@H]2C)O[C@@]12CC[C@@](C)([C@H]1CC[C@](O)(CC)[C@H](C)O1)O2 | 390 nM | – | –
12 | 190 nM | – | – | CC[C@@H](C(=O)[C@@H](C)[C@@H](O)[C@H](C)[C@@H]1O[C@@H]([C@@H](CC)C(=O)O)CC[C@@H]1C)[C@H]1O[C@]2(C=C[C@@H](OC(=O)C(C)C)[C@]3(CC[C@@](C)([C@H]4CC[C@](O)(CC)[C@H](C)O4)O3)O2)[C@H](C)C[C@@H]1C | 150 nM | – | –
13 | 170 nM | – | – | CC[C@@H](C(=O)[C@@H](C)[C@@H](O)[C@H](C)[C@@H]1O[C@@H]([C@@H](CC)C(=O)O)CC[C@@H]1C)[C@H]1O[C@]2(C=C[C@@H](OC(=O)C(C)(C)C)[C@]3(CC[C@@](C)([C@H]4CC[C@](O)(CC)[C@H](C)O4)O3)O2)[C@H](C)C[C@@H]1C | 230 nM | – | –
